Laboratory results: article PMC4817029, “Molecular characterization of a family 5 glycoside hydrolase suggests an induced-fit enzymatic mechanism” (Scientific Reports, 2016)

Experiments:
[1] = target: T1, BlCel5B (Bacillus licheniformis, UniProt Q65JI7); experiment: X-ray crystal structure ([…] A) after soaking with cellopentaose; assay type: binding; conditions: crystal soaked with five times molar excess of cellopentaose for 24 h; cellotetraose from cleavage in the crystal; subsites -1 to -3 of the catalytic domain
T1 construct: gene celC; full-length trimodular enzyme (CD, Ig-like, CBM46) without signal peptide (nucleotides 1-81 removed; gene end nt 1683); E. coli Rosetta2 (DE3), pETTRXA-1a/LIC; His6 tag cut by TEV; monomer

[2] = target: T1, BlCel5B; experiment: MALDI/TOF-MS product profile; assay type: biochemical; conditions: 1.0 mM cellopentaose, 10 mM ammonium bicarbonate pH 7.0, 50 C, 90 min

T1 sequence (Q65JI7 entry or part of it): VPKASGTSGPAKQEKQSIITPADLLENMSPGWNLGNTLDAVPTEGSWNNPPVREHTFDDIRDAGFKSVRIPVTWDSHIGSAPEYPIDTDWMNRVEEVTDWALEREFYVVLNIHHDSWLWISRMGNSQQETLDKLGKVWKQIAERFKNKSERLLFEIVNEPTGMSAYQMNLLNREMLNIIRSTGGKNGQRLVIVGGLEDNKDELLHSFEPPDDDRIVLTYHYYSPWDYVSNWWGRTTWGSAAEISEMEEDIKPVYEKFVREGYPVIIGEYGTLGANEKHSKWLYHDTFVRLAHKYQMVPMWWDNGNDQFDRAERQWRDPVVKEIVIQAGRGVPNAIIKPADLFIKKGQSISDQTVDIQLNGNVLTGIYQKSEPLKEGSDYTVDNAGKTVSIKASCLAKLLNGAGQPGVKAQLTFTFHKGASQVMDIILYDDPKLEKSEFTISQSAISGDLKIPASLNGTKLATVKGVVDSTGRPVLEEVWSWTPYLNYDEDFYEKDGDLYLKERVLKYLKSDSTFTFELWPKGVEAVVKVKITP

Compound | X-ray crystal structure (1.75 A) after soaking with cellopentaose [1] | MALDI/TOF-MS product profile [2]
OC[C@H]1O[C@@H](O[C@H]2[C@H](O)[C@@H](O)[C@H](O[C@H]3[C@H](O)[C@@H](O)[C@H](O[C@H]4[C@H](O)[C@@H](O)C(O)O[C@@H]4CO)O[C@@H]3CO)O[C@@H]2CO)[C@H](O)[C@@H](O)[C@@H]1O (some centres unmarked) [C4, cellotetraose] | Electron density maps clearly reveal the presence of a cellotetraose (C4) | 
OC[C@H]1O[C@@H](O[C@H]2[C@H](O)[C@@H](O)[C@H](O[C@H]3[C@H](O)[C@@H](O)[C@H](O[C@H]4[C@H](O)[C@@H](O)[C@H](O[C@H]5[C@H](O)[C@@H](O)C(O)O[C@@H]5CO)O[C@@H]4CO)O[C@@H]3CO)O[C@@H]2CO)[C@H](O)[C@@H](O)[C@@H]1O (some centres unmarked) [C5, cellopentaose] |  | ability of BlCel5B to cleave C5 into glucose and C4 molecules in solution was demonstrated
